Assay [1] has as its target Hydrilla PDS Arg^304 → Threonine (Hydrilla verticillata, UniProt Q66PY0, R304T). In words: Cross resistance to bleaching herbicides, in vitro PDS inhibition, non-His-tagged (Table 2). It is filed as biochemical. The conditions noted are these: Threonine at 304; construct in frame with LacZalpha-ccdB, non-His-tagged; read-out: I50. The method, then:
(§1) The expression constructs in Table 2 were derived from an original clone of the susceptible PDS gene from Hydrilla and then the Arg^304 was mutated to the listed amino acid. Expression was under the control of the lac promoter but in frame with the initiation codon of the LacZalpha-ccdB gene in the pCR4-TOPO vector (Invitrogen Inc., CA, Cat. #K4575-01).
(§2) All mutagenesis was performed, unless stated otherwise, using the TOPO-vector containing the wildtype (H4) PDS-sequence, which was extracted from an overnight culture with the Qiagen Plasmid Prep Kit as described above. The amount of the extracted plasmid was diluted to 10 ng/μl and used as template in a mutagenesis-procedure using the QuikChange Site-directed Mutagenesis Kit (Stratagene, Calif., #200518). The design of the mutagenesis-primers was conducted according to the manufacturers protocol to enable the specific change of Arg^304-codon to code for the desired amino acid. Primers (purchased from MWG-Biotech) and their introduced amino acid change are listed below with the changed codon underlined:
(§3) The reactions were performed according to the manufacturers protocol. Reactions were set up in MicroAmp-tubes on ice with 38 μl ddH2O, 5 μl 10× reaction buffer, 2 μl plasmid (10 ng/μl), 1.25 μl forward-mutagenesis primer (100 ng/μl), 1.25 μl of reverse mutagenesis primer (100 ng/μl), 1 μl dNTP-mix and 1 μl PfuTurboDNA polymerase (2.5 U/μl). The reactions were placed in a PE 9700 thermal cycler and heated to 95° C. for 30 sec followed by 12 rounds at 95° C. for 30 sec, 55° C. for 1 min and 68° C. for 12 min. The PCR was followed by a DpnI-digestion and transformation in XL1-Blue supercompetent cells as described in the manual. 4-6 resulting colonies were grown overnight in LB-medium with kanamycin and plasmid DNA was isolated as described above. The plasmid was used as template for sequencing with M13 and internal PDS-primers as described above on a LiCOR-system. Sequences were assembled and analyzed using Seqman. Introduced mutations were identified and plasmids carrying the desired mutation(s) were transferred into competent TOP10-cells, using the transformation protocol from the TOPO TA Cloning Kit. Resulting colonies were grown overnight in Wu-broth with kanamycin, aliquoted and stored at −80° C. until further use. 1 ml of Wu-cultures was used to start 1-L LB-cultures with kanamycin as described before, to express active PDS-enzyme for testing as described.
(§4) Phytoene desaturase activity and its inhibition by herbicides was determined using an in vitro system using components derived from the in vivo production of phytoene and phytoene desaturase proteins. All mutations described in Examples 3 and 4 were tested. […] The clones were used for the heterologous expression of Hydrilla-PDS-enzyme. In particular, bacterial cultures were grown from single colonies overnight in Wu-broth (6.27 g/L K2HPO4, 1.8 g/L KH2PO4, 0.5 g/L Na-citrate, 0.9 g/L (NH4)2SO4, 10 g/L tryptone, 5 g/L yeast extract, 10 g/L NaCl, 44 ml/L glycerol, 0.1 mM MgSO4, pH 7.2) with kanamycin. 1-mL was aliquoted in centrifuge tube and stored at −80° C. For expression, 1 L LB-medium with kanamycin was inoculated with 1-mL Wu-culture and grown for 24 h at 37° C. to stationary phase with shaking at 200 rpm. The cells were collected by centrifugation at 2000×g. All of the following steps were done at 4° C. unless otherwise noted. Active soluble PDS enzyme was extracted by lysing the transformed E. coli cells using a French Press at 20,000 psi in assay buffer consisting of 100 mM Tris-HCl, pH 7.2, 10 mM magnesium-chloride, 0.1 mM NADP, 0.1 mM FAD, 10 mM cysteine, 5 mM DTT, 1 mM aminocaproic acid, and 1 μg/ml leupeptin. The soluble fraction containing PDS activity was obtained by centrifugation for 10 min at 1200×g. After 24 h they were centrifuged down and used in PDS enzyme activity assays as described below.

The subject of assay [2] is Hydrilla PDS Arg^304 → Threonine. The description is as above. It counts as biochemical, Hydrilla verticillata. The note with it: Threonine at 304 relative to Arginine; Table 2. The method, then: as §1, §2, §3, §4

We go through 7 compounds from patent US20110098180A1, “Herbicide-Resistant Plants, And Polynucleotides And Methods For Providing Same” (United States Department of Agriculture, priority 2002, published 2011).

Hydrilla PDS Arg^304 → Threonine (Hydrilla verticillata, UniProt Q66PY0, R304T), sequence (Q66PY0 1-580 R304T): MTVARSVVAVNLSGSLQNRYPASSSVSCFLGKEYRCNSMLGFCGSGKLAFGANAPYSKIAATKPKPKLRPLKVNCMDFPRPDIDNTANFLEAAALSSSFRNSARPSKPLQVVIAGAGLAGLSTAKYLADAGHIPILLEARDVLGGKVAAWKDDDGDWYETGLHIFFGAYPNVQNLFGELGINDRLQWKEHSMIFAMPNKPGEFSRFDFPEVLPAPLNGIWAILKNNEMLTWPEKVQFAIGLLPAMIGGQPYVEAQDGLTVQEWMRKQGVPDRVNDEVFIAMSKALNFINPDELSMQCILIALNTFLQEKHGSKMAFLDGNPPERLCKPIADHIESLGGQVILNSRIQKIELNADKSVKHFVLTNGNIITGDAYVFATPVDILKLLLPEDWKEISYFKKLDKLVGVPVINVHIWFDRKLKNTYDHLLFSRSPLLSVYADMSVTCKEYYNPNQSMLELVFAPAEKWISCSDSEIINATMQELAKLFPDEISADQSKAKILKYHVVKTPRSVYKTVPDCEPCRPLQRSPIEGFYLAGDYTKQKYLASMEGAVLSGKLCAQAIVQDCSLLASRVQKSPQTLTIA

`CCC(Oc1ccc(F)c(C(F)(F)F)c1)C(=O)NCc1ccccc1` (stereo not shown) [Beflubutamid]: the IC50 in assay [1] stood at 1.2 µM. The compound also registered a R/S in assay [2] of 0.3. For `O=C(Nc1ccc(F)cc1F)c1cccnc1Oc1cccc(C(F)(F)F)c1` [Diflufenican], the IC50 in assay [1] turned out to be 1 µM. Also, in assay [2], the R/S is reported as 0.2.

Take `O=C1C(Cl)C(CCl)CN1c1cccc(C(F)(F)F)c1` (stereo not shown) [Fluorochloridone]: the IC50 in assay [1] was 52 µM. Moreover, the R/S in assay [2] was 4.3. With `CNC1=C(c2cccc(C(F)(F)F)c2)C(=O)C(c2ccccc2)O1` (stereo not shown) [Flurtamone], in assay [1], the IC50 turned out to be 8.1 µM. The R/S in assay [2] worked out at 2.9.

Regarding `CNc1cnn(-c2cccc(C(F)(F)F)c2)c(=O)c1Cl` [Norflurazon], the IC50 in assay [1] worked out at 161 µM. The R/S in assay [2] amounted to 52.0. The matching figures for `O=C(Nc1ccc(F)cc1)c1cccc(Oc2cccc(C(F)(F)F)c2)n1` [Piconilafen, Picolinafen]: 2.7 µM and 0.5. Consider Fluridone, for which the R/S in assay [2] is listed as 10.0.
